We go through one molecule from US20260007131A1, “HERBICIDAL COMPOSITION CONTAINING DIFLUOROBUTENOIC ACID AMIDE COMPOUND” (ISHIHARA SANGYO KAISHA, LTD., priority 2022, published 2026).

Common to all, as to assay type: in vivo
The test system of test [1] is barnyardgrass (Echinochloa crus-galli). In words: Herbicidal effect on barnyardgrass (foliar treatment). The protocol: (§1) Upland soil was put into a 1/300,000 hectare (ha) pot, seeds of barnyardgrass (Echinochloa crus-galli) were sown, and about 1.5 cm of cover soil was put. The barnyardgrass was grown for 10 days in a greenhouse until it reached a predetermined leaf stage. […] The spray solution was sprayed over the grown barnyardgrass with a small sprayer for foliar treatment.
(§2) Upland soil was put into a 1/300,000 hectare (ha) pot, seeds of barnyardgrass (Echinochloa crus-galli), crabgrass (Digitaria sanguinalis), green foxtail (Setaria viridis), wild oat (Avena fatua), Italian ryegrass (Lolium multiflorum), foxtail shortawn (Alopecurus aequalis), annual bluegrass (Poa annua), redroot pigweed (Amaranthus retroflexus), common chickweed (Stellaria media) common lambsquarters (Chenopodium album) and black nightshade (Solanum nigrum) were sown, and about 1.5 cm of cover soil was put. The plants were grown for 10 days in a greenhouse until they reached a predetermined leaf stage.

The test system of test [2] is foxtail shortawn (Alopecurus aequalis). As to the kind of experiment: Herbicidal effect on foxtail shortawn (foliar treatment). The protocol:
as §1, §2

In test [3] the test system is barnyardgrass (Echinochloa crus-galli). As to the kind of experiment: Herbicidal effect on barnyardgrass (soil treatment). The source says:
(§3) Upland soil was put into a 1/300,000 hectare (ha) pot, seeds of barnyardgrass (Echinochloa crus-galli) were sown, and about 1.5 cm of cover soil was put. […] On the next day after sowing, the spray solution was sprayed with a small sprayer for soil treatment.
(§4) Upland soil was put into a 1/300,000 hectare (ha) pot, seeds of barnyardgrass (Echinochloa crus-galli), crabgrass (Digitaria sanguinalis), green foxtail (Setaria viridis), Italian ryegrass (Lolium multiflorum), redroot pigweed (Amaranthus retroflexus) and common chickweed (Stellaria media) were sown, and about 1.5 cm of cover soil was put.

Test [4] relates to crabgrass (Digitaria sanguinalis). In words: Herbicidal effect on crabgrass (soil treatment).
Text: as §3, §4

Where [5] appears, read: barnyardgrass, 250 g/ha, 14th day, read-out: growth inhibition rate.

Consider `COC(=O)[C@H]1C[C@@H](NC(=O)C(F)(F)/C=C/c2cc(F)cc(F)c2)C1` [Aa-1-1], for which the inhibition at 500 g/ha is not below 90% in test [1] (Comparative Test 1, barnyardgrass, 500 g/ha, read-out: Growth inhibition rate); not below 90% in test [2] (Comparative Test 1, foxtail shortawn, 500 g/ha, read-out: Growth inhibition rate); not below 90% in test [3] (Comparative Test 2, barnyardgrass, 500 g/ha, read-out: Growth inhibition rate); not below 90% in test [4] (Comparative Test 2, crabgrass, 500 g/ha, read-out: Growth inhibition rate). The inhibition at 1000 g/ha was not below 90% in test [1] (Comparative Test 1, barnyardgrass, 1000 g/ha, read-out: Growth inhibition rate); not below 90% in test [2] (Comparative Test 1, foxtail shortawn, 1000 g/ha, read-out: Growth inhibition rate); not below 90% in test [3] (Comparative Test 2, barnyardgrass, 1000 g/ha, read-out: Growth inhibition rate); not below 90% in test [4] (Comparative Test 2, crabgrass, 1000 g/ha, read-out: Growth inhibition rate). Besides, the inhibition at 250 g/ha was not below 70% in test [1] (setting [5]); not below 70% in test [2] (foxtail shortawn, 250 g/ha, 14th day, read-out: growth inhibition rate); not below 70% in test [3] (setting [5]); not below 70% in test [4] (crabgrass, 250 g/ha, 14th day, read-out: growth inhibition rate).
